Measured values: US7169942B2, “Cannabinoid derivatives, methods of making, and use thereof” (priority 2003, dated 2007)
Read-outs that look alike come from different tables or passages of the source.

Columns and labels:
human CB2 receptor = target: T1, human CB2 receptor (Homo sapiens, UniProt P34972); experiment: CB2 receptor binding assay, displacement of [3H]CP 55,940
T1 construct: purchased Perkin-Elmer Life Sciences, Inc. Lot #1930

human CB1 receptor = target: T2, human CB1 receptor (Homo sapiens, UniProt P21554); experiment: biochemical; assay type: binding
T2 construct: purchased Perkin-Elmer Life Sciences, Inc. Lot #1929; host or cells: HEK293 (HEK293 EBNA according to b236 for compounds 33-36)

[1] = system: rat hemorrhagic shock model; experiment: Rat hemorrhagic shock model; conditions: FIG. 22
C6 glioma cells = experiment: Cytotoxicity on C6 glioma cells (MTS, CellTiter 96); conditions: concentrations of 8 μM
CB1 = CB1 (Rattus norvegicus, UniProt P20272); conditions: literature value, highly potent CB1 analogs; read-out: Ki of reference cannabinoid; cited from earlier work
[2] = Table 3, human receptor in HEK293 EBNA cell membranes, three experiments in duplicate, SEM in parentheses
[3] = Table 1, affinity ratio of Ki values
[4] = Table 1, membranes of HEK293 cells with human CB1, SEM in parentheses, n≧2 in triplicate, read-out: CB1 Ki
[5] = Table 8, SEM in parentheses, n≧2 in triplicate
[6] = Table 8, SEM in parentheses, n≧2 in triplicate, read-out: CB1 Ki
[7] = Table 3, human receptor in HEK293 EBNA cell membranes, three experiments in duplicate, SEM in parentheses, read-out: CB2 Ki
[8] = Table 3, human receptor in HEK293 EBNA cell membranes, three experiments in duplicate, SEM in parentheses, read-out: CB1 Ki

T2 sequence (P21554 whole entry): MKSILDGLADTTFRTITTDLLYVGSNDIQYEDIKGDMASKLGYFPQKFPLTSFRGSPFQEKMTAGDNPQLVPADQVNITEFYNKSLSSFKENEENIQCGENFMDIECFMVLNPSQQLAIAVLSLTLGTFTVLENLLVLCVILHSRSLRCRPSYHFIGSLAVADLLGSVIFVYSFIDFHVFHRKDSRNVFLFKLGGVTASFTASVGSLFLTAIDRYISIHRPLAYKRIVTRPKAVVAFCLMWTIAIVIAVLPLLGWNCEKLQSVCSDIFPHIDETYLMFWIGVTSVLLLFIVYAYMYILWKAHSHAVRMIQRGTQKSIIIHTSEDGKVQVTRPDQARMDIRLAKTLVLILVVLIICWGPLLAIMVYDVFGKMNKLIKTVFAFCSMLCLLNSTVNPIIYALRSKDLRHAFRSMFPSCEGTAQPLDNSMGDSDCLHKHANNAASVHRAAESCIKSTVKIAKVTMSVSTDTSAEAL
T1 sequence (P34972 whole entry): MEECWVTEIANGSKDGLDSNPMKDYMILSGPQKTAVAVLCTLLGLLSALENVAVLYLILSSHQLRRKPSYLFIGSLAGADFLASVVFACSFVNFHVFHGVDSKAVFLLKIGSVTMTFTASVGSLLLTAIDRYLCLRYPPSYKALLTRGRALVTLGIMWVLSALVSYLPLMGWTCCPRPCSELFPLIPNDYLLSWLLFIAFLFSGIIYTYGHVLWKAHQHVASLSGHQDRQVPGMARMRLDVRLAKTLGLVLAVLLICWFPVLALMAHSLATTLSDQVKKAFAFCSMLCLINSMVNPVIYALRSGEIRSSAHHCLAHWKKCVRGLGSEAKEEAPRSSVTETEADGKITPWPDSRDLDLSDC
Chain of CB1 (P20272 whole entry): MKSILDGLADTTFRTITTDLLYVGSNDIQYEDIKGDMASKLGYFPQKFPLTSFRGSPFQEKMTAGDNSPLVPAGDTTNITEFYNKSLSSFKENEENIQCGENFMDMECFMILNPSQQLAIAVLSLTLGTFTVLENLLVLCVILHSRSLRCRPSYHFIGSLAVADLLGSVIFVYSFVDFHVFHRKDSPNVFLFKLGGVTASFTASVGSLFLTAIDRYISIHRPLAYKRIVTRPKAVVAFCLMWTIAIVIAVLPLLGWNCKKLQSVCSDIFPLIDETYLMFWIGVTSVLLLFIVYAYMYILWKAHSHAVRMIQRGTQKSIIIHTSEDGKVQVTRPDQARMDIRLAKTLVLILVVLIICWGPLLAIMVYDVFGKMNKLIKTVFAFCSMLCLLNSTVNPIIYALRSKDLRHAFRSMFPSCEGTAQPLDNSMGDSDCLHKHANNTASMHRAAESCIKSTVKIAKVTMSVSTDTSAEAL

With `CCCCC(=O)c1cc(OC)cc(OC)c1` [Compound 5, 1-(3,5-Dimethoxy-phenyl)-pentan-1-one] the “CB2 Ki” value (human CB2 receptor; [2]) was “significantly reduced binding affinities” and the “CB1 Ki” value (human CB1 receptor; [2]) was “significantly reduced binding affinities”.

With `CCCCC1(c2cc(O)c3c(c2)OC(C)(C)C2CC=C(C)CC32)SCCS1` (centres unmarked) [Compound 23, 3-(2-Butyl-[1,3]dithiolan-2-yl)-6,6,9-trimethyl-6a,7,10,10a-tetrahydro-6H-benzo[c]chromen-1-ol] the Ki (human CB2 receptor) was 0.58 nM, the “fold increase in binding to the CB2 receptor relative to Δ8-THC” value (human CB2 receptor) was 47 fold and the “fold increased affinity for the CB2 receptor relative to the carbon equivalent 24” value (human CB2 receptor) was 11 fold. The “CB2 Ki” value (human CB2 receptor; Table 1, membranes of CHO-K1 cells with human CB2, SEM in parentheses, n≧2 in triplicate) was “sub-nanomolar”, the “fold increase in binding to the CB1 receptor relative to Δ8-THC” value (human CB1 receptor) was 33 fold and the “fold increased affinity for the CB1 receptor relative to the carbon equivalent 24” value (human CB1 receptor) was 4.7 fold. For the same compound, the “Ratio CB1/CB2” value (human CB1 receptor; [3]) was 1.47, the “CB1 Ki” value (human CB1 receptor; Table 1, membranes of HEK293 cells with human CB1, SEM in parentheses, n≧2 in triplicate) was “sub-nanomolar” and the Ki (human CB1 receptor; [4]) was 0.85 nM.

With `CC1=CCC2C(C1)c1c(O)cc(C(C)(C)C3CCCC3)cc1OC2(C)C` (centres unmarked) [Compound 27, 3-(1-Cyclopentyl-1-methyl-ethyl)-6,6,9-trimethyl-6a,7,10,1a-tetrahydro-6H-benzo[c]chromen-1-ol] the Ki (human CB2 receptor; Table 1, membranes of CHO-K1 cells with human CB2, SEM in parentheses, n≧2 in triplicate, read-out: CB2 Ki) was 0.39 nM, the “Ratio CB1/CB2” value (human CB1 receptor; [3]) was 0.84 and the Ki (human CB1 receptor; read-out: CB1 Ki) was 0.34 nM.

With `CC1=CCC2C(C1)c1c(O)cc(C3(C4CCCCC4)SCCS3)cc1OC2(C)C` (centres unmarked) [Compound 25, 3-(2-Cyclohexyl-[1,3]dithiolan-2-yl)-6,6,9-trimethyl-6a,7,10,10a-tetrahydro-6H-benzo[c]chromen-1-ol] the “change in mean blood pressure versus time relative to positive control Δ8-THC and NS-398” value ([1]; 12 mg/kg in combination with NS-398 2 mg/kg) was “improved behavior relative to the positive control”, the Ki (human CB2 receptor) was 1.05 nM and the “Ratio CB1/CB2” value (human CB1 receptor) was 1.77. For the same compound, the Ki (human CB1 receptor; [4]) was 1.86 nM.

For `CC1=CCC2C(C1)c1c(O)cc(C(C)(C)c3ccc(F)cc3)cc1OC2(C)C` (centres unmarked) [Compound 54, 3-[1-(4-Fluoro-phenyl)-1-methyl-ethyl]-6,6,9-trimethyl-6a,7,10,10a-tetrahydro-6H-benzo[c]chromen-1-ol], the Ki (human CB2 receptor) was 3.54 nM, the “CB2 Ki” value (human CB2 receptor; [5]) was “did show enhanced affinity for the CB-2 receptor” and the “Ratio CB1/CB2” value (human CB1 receptor) was 0.79. The Ki (human CB1 receptor; [6]) was 2.8 nM.

With `CC1=CCC2C(C1)c1c(O)cc(C(C)(C)c3ccc(C)cc3)cc1OC2(C)C` (centres unmarked) [Compound 50, 6,6,9-Trimethyl-3-(1-methyl-1-p-tolyl-ethyl)-6a,7,10,10a-tetrahydro-6H-benzo[c]chromen-1-ol] the Ki (human CB2 receptor) was 0.88 nM, the “CB2 Ki” value (human CB2 receptor; [5]) was “sub-nanomolar” and the Ki (human CB1 receptor; [6]) was 2.13 nM. The “Ratio CB1/CB2” value (human CB1 receptor; Table 8, ratio of Ki values) was 3.56.

With `CC1=CC[C@@H]2[C@@H](C1)c1c(O)cc(C(=O)c3ccccc3)cc1OC2(C)C` [Compound 36, methanone-phenyl-Δ^8-THC] the Ki (human CB2 receptor; [7]) was 23.6 nM, the “Ratio CB1/CB2” value (human CB1 receptor) was 12.6 and the “fold decrease in binding affinity for the CB1 receptor compared to Δ8-THC” value (human CB1 receptor) was roughly 10 fold. It also gave a Ki (human CB1 receptor; [8]) of 297 nM.

In the case of `CC1=CCC2C(C1)c1c(O)cc(C3(C4CCCC4)SCCS3)cc1OC2(C)C` (centres unmarked) [Compound 24, 3-(2-Cyclopentyl-[1,3]dithiolan-2-yl)-6,6,9-trimethyl-6a,7,10,10a-tetrahydro-6H-benzo[c]chromen-1-ol], the Ki (human CB2 receptor) is reported as 2.74 nM, the “fold decrease in affinity at the CB2 receptor (dithiolane ring)” value (human CB2 receptor) is reported as 7 fold and the “Ratio CB1/CB2” value (human CB1 receptor; [3]) is reported as 3.46. It also gave a Ki (human CB1 receptor; [4]) of 9.49 nM.

In the case of `CC1=CCC2C(C1)c1c(O)cc(C(C)(C)c3cccs3)cc1OC2(C)C` (centres unmarked) [Compound 55, 6,6,9-Trimethyl-3-(1-methyl-1-thiophen-2-yl-ethyl)-6a,7,10,10a-tetrahydro-6H-benzo[c]chromen-1-ol], the Ki (human CB2 receptor) is reported as 0.27 nM, the “CB2 Ki” value (human CB2 receptor; [5]) is reported as “sub-nanomolar” and the Ki (human CB1 receptor) is reported as 1.08 nM. The “Ratio CB1/CB2” value (human CB1 receptor) was 4.00.

In the case of `CC1=CCC2C(C1)c1c(O)cc(Cc3ccccc3)cc1OC2(C)C` (centres unmarked) [Compound 35, methylene-phenyl-Δ^8-THC], the Ki (human CB2 receptor; [7]) is reported as 85.9 nM, the Ki (human CB1 receptor; [8]) is reported as 67.6 nM and the “Ratio CB1/CB2” value (human CB1 receptor; Table 3, ratio of Ki values) is reported as 0.78.

For “gem-dimethyl-phenyl-Δ^8-THC [Compound 33]”, the “fold selectivity for the CB2 receptor” value (human CB2 receptor; CB2 over CB1) was 13 fold, the Ki (human CB2 receptor; [7]) was 0.91 nM and the Ki (human CB2 receptor; Table 8, SEM in parentheses, n≧2 in triplicate, read-out: CB2 Ki) was 0.91 nM. For the same compound, the “Ratio CB1/CB2” value (human CB1 receptor) was 13.5, the Ki (human CB1 receptor; read-out: CB1 Ki) was 12.3 nM and the “time to complete cell death” value (C6 glioma cells) was no more than 5 h.

For `CCCCCCC1(c2cc(O)c3c(c2)OC(C)(C)C2CC=C(C)CC32)SCCS1` (centres unmarked) [DTHT, 1′,1′-dithiolaneheptyl-Δ^8-THC], the Ki (CB1) is listed as 0.32 nM.

For `CC1=CCC2C(C1)c1c(O)cc(C(C)(C)C3CCCCCC3)cc1OC2(C)C` (centres unmarked) [Compound 29, 3-(1-Cycloheptyl-1-methyl-ethyl)-6,6,9-trimethyl-6a,7,10,10a-tetrahydro-6H-benzo[c]chromen-1-ol], the Ki (human CB2 receptor) was 0.22 nM and the Ki (human CB1 receptor; [4]) was 0.94 nM.

With `CC1=CCC2C(C1)c1c(O)cc(C(C)(C)c3cccc(C)c3)cc1OC2(C)C` (centres unmarked) [Compound 51, 6,6,9-Trimethyl-3-(1-methyl-1-m-tolyl-ethyl)-6a,7,10,10a-tetrahydro-6H-benzo[c]chromen-1-ol] the Ki (human CB2 receptor) was 1.13 nM, the Ki (human CB1 receptor; [6]) was 2.53 nM and the “Ratio CB1/CB2” value (human CB1 receptor; Table 8, ratio of Ki values) was 2.24.

Work on `CC1=CCC2C(C1)c1c(O)cc(C(C)(C)c3cccc(Cl)c3)cc1OC2(C)C` (centres unmarked) [Compound 53, 3-[1-(3-Chloro-phenyl)-1-methyl-ethyl]-6,6,9-trimethyl-6a,7,10,10a-tetrahydro-6H-benzo[c]chromen-1-ol] yielded a Ki (human CB2 receptor) of 1.68 nM and a Ki (human CB1 receptor; [6]) of 18.8 nM.

With `CC1=CCC2C(C1)c1c(O)cc(C(C)(C)C3CCCCC3)cc1OC2(C)C` (centres unmarked) [Compound 28, 3-(1-Cyclohexyl-1-methyl-ethyl)-6,6,9-trimethyl-6a,7,10,10a-tetrahydro-6H-benzo[c]chromen-1-ol] the “rapid increase in ΔMAP, level reached relative to basal MAP” value ([1]; 12 mg/kg with 2 mg/kg NS-398 (COX-2 inhibitor)) was no more than 85%, the Ki (human CB2 receptor) was 0.65 nM and the “Ratio CB1/CB2” value (human CB1 receptor; [3]) was 0.87. The Ki (human CB1 receptor; [4]) was 0.57 nM, the “Ratio CB1/CB2” value (human CB1 receptor; Table 3, ratio of Ki values) was 0.87 and the “Ratio CB1/CB2” value (human CB1 receptor; Table 3, ratio of Ki values, listed as 32) was “binds both the subtypes with almost equal affinity”.

For `CC1=CCC2C(C1)c1c(O)cc(C3(c4ccccc4)SCCS3)cc1OC2(C)C` (centres unmarked) [Compound 34, dithiolanyl-phenyl-Δ^8-THC], the Ki (human CB2 receptor; [7]) was 17.6 nM, the “fold decrease in affinity relative to the 1′-cyclohexyl congener” value (human CB1 receptor) was 10 fold and the Ki (human CB1 receptor; [8]) was 17.3 nM.

For `CCCCCCC(C)(C)c1cc(O)c2c(c1)OC(C)(C)C1CC=C(C)CC21` (centres unmarked) [DMHT, 1′,1′-dimethylheptyl-Δ^8-THC], the Ki (CB1) is given as 0.77 nM.

For `CC1=CCC2C(C1)c1c(O)cc(C(C)(C)c3ccc(Cl)cc3)cc1OC2(C)C` (centres unmarked) [Compound 52, 3-[1-(4-Chloro-phenyl)-1-methyl-ethyl]-6,6,9-trimethyl-6a,7,10,10a-tetrahydro-6H-benzo[c]chromen-1-ol], the Ki (human CB2 receptor) was 12.4 nM and the Ki (human CB1 receptor; [6]) was 76.1 nM.

With `CC1=CCC2C(C1)c1c(O)cc(C3(C4CCCCCC4)SCCS3)cc1OC2(C)C` (centres unmarked) [Compound 26, 3-(2-Cycloheptyl-[1,3]dithiolan-2-yl)-6,6,9-trimethyl-6a,7,10,10a-tetrahydro-6H-benzo[c] chromen-1-ol] the Ki (human CB2 receptor) was 6.62 nM, the “fold decrease in affinity at the CB2 receptor (dithiolane ring)” value (human CB2 receptor) was 33 fold and the “Ratio CB1/CB2” value (human CB1 receptor; [3]) was 0.27. It also gave a Ki (human CB1 receptor; [4]) of 1.76 nM.
